Measurements: patent US6479232B1, “Human xenografts for microbicide testing and anatomical modeling” (The Pennsylvania State University, priority 1999, dated 2002)

How the values were obtained:
[1] = design: species or system mice; conditions: mouse, in vivo
Text: While it is not intended the present invention be limited to any specific formulation or dimension of silastic tubing, in one embodiment said silastic tubing was fabricated according to the following method. Tubing (0.078 in. inner diameter by 0.125 in. outer diameter; Dow Corning, Midland, Mich.) was filled with 17β-estradiol (1,3,5[10]-Estratriene-3, 17β) (Sigma Chemical Company, St. Louis, Mo.) mixed 1:3 (w/w) with silastic 382 medical grade elastomer (Dow Coming, St. Louis, Mo.). The mixture was allowed to dry and the tubing cut, in one embodiment, to a size (approximately 2×2×1 mm) which yielded a measurable circulating estradiol concentration of about 150-200 pg/ml in mice. It may be noted that this concentration of estradiol approximates the concentration of estrogen in women during the late follicular phase of the menstrual cycle.

[2] = tested on: HPV-11; assay: HPV-11 infection of human vaginal xenografts engrafted in immunocompromised mouse, virus pre-treated with candidate microbicide; type: in vivo; conditions: HPV-11 treated with 0.05% SDS at 37° C. for 10 minutes, then placed in lumen of grafts engrafted ten days in immunocompromised mouse
Text: In this example, human vaginal xenografts were infected with HPV by inoculating the lumen of said vaginal xenografts, engrafted into a non-human host, with HPV-11 stock virus suspensions prepared according to the methods presented in Example 1. […] Furthermore, it is not necessary to traumatize the walls of said grafts during inoculation to precipitate infection.
In experimental samples, candidate microbicides are mixed with HPV in vitro prior to administration of said HPV/candidate microbicide mixture to the lumen of a vaginal xenograft engrafted into a non-human host. In an alternative experimental embodiment, candidate microbicides were pre-administered to the vaginal lumen, before delivery of a pathogenic agent, into the same lumen.
Xenografts are harvested at 70-90 days and are screened for signs of virus replication. Said screening protocols include quantification of morphologic transformations, viral DNA and RNA synthesis, and protein synthesis. In addition, cell-free extracts of infected xenografts are tested by bioassay for the presence of infectious virus using standard procedures for infection and transformation of vaginal epithelium. […]

[3] = tested on: human vaginal xenograft epithelium; assay: Survival and morphology of treated epithelium in the human vaginal xenograft; type: in vivo; conditions: grafts receiving virus treated with 0.05% SDS
Experimental: In this example, human vaginal xenografts engrafted for ten days in the subcutaneous space of an immunocompromised mouse were infected with 10 u l of HPV-11, or HPV-11 that had been treated with 0.05% SDS at 37° C. for 10 minutes and then placed in the lumen of the grafts. At varying intervals, the infected human xenografts (or portions thereof) were surgically removed and examined.

[4] = tested on: HSV-2; conditions: in vitro; cited from earlier work
[5] = tested on: HIV-1; conditions: in vitro; cited from earlier work
[6] = tested on: HIV; conditions: cited from earlier work
[7] = some people; cited from earlier work
[8] = tested on: HPVs; conditions: cited from earlier work

In the case of `C[C@]12CC[C@@H]3c4ccc(O)cc4CC[C@H]3[C@@H]1CC[C@@H]2O` [17β-estradiol, 17β-estradiol (1,3,5[10]-Estratriene-3, 17β)], the circulating estradiol concentration [1] is reported as 150 to 200 pg/mL.

For `CCCCCCCCCCCCOS(=O)(=O)[O-].[Na+]` [SDS, Sodium Dodecyl Sulfate], the “prevention of virus infection (papillomatous transformation, virus DNA, virus protein)” value [2] was “effectively prevented virus infection”, the “killing of treated epithelium in the vaginal xenograft” value [3] was “did not kill the treated epithelium” and the “morphology of tissues receiving treated virus” value [3] was “stratified squamous epithelium with a morphology analogous to normal in situ vagina”.

In the case of Nonoxynol-9 [N-9], the “inactivation of HSV-2” value [4] is given as “inactivates”, the “inactivation of HIV-1” value [5] is given as “inactivates” and the “prevention of transmission of HIV to women” value [6] is given as “has not been proven to prevent transmission”. For the same compound, the irritation and ulceration [7] was “may cause irritation and ulceration in some people” and the “inactivation of / effectiveness against HPVs” value [8] was “does not inactivate HPVs”.
